Where “and” joins values, the source holds several entries; their conditions need not be identical. Equal entries are not always repeated.
How the values were obtained:
Format in all cases: physicochemical
[1] = sublimation at 160° C. for 6 hours under nitrogen; details: for % of sublimed product: 160° C., 6 hours, nitrogen; for sublimation: of the quantity of product being used
Method: A test sample of about 130 mg of the product to be investigated is introduced into a 100 cc beaker. The latter is placed in a 250 cc reactor. The temperature is kept at 160° C. by means of a thermostatically controlled oil bath for 6 hours, the atmosphere of the reactor being inert (nitrogen) in order to avoid the oxidation of the 1,4-dihydropyridine into pyridine, which is more sublimable.
For each dihydropyridine derivative which is investigated, the result is expressed as a percentage of sublimed product relatively to the quantity being used.

[2] = migration of stabiliser from PVC bottles into water at 50° C.; details: water 50° C.
Method: 2.2--Study of the migration
The migration or the extractability of the stabiliser from the PVC compound under the effect of various liquids (and particularly water) stored in a plastic container is of essential importance for the use of these stabilisers in the field of food packagings.
(§1) The technique as regards extraction was the following: using the formula which is given below, a batch of bottles (volume 1 liter, diameter 70 mm, height.perspectiveto.230 mm) was prepared, the said bottles being filled with a liquid simulating the foods. […] The migration of the stabiliser was judged by dosage of the pyridine present in the extractum, using the dosage method which is later described. This pyridine obviously represents the oxidised form of the extracted 1,4-dihydropyridine.
The investigation was particularly developed for water at 50° C. over a period of 2 months, because it represents the important problem regarding the packaging of mineral waters.
Formula for the manufacture of bottles
The S L 2016 is a solution of zinc 2-ethyl hexanoate in a mixture of aromatic hydrocarbons boiling from 158° to 184° C.
(§2) The stabilisers are measured out in the form of their oxidation product (pyridine).
(§3) The oxidation is made quantitative by adding a few drops of iodine to the solution. The latter is then extracted with chloroform and the chloroform is evaporated to a small residual volume. The solution obtained is then subjected to thin-film chromatography, by comparison with solutions of known concentration of the desired pyridines.
(§4) The sensitivity threshold of this technique is 5 μg/liter.

[3] = migration of stabiliser from PVC into solutions or solvents simulating foods at 50° C.
Method: as §1, §2, §3, §4
For justifying the possibility of using the dihydropyridines (I) having a radical R comprising from 9 to 22 carbon atoms in applications concerned with food packaging, other than those applications relating to mineral waters, the extractability of the dihydropyridines by several solutions or solvents having the following composition, by weight, was investigated:
(a) water-sodium chloride: 97-3
(b) water-saccharose: 90-10
(c) water-sodium chloride-acetic acid: 98.5-0.5-1
(d) water-citric acid (solution at pH=5): 98-2
(e) water-acetic acid: 97-3
(f) water-acetic acid: 90-10
(h) water-acetic acid: 50-50

[4] = polarographic study of the oxidation potential (Example 30); details: acetonitrile, lithium perchlorate; calomel electrode; in V (unit assumed)
Description: 261. Polarographic study of the oxidation potential […]
reference electrode: a calomel electrode which contains, as junction liquid, a saturated solution of anhydrous lithium perchlorate working electrode: rotating electrode of vitreous carbon (2500 r.p.m.) counter-electrode: platinum. acetonitrile, having a water content smaller than 0.1% and not presenting any polarographic waves between -2.5 volts and +2.5 volts.
0.1 M solution of lithium perchlorate in acetonitrile, treated and preserved on a molecular screen of 4 A. […]
exploration amplitude: 0 to 2 V exploration speed: 10 mV/sec.

[5] = polarographic oxidation potential (Example 31); details: 0.5 m.mole/liter; methanol/acetic acid; 35° C.
Method: platinum counter-electrode and calomel electrode with filling by a saturated aqueous solution of lithium chloride.
The measurements were carried out in the following solvent:
90 parts of an 0.1 M solution of lithium perchlorate in methanol, 10 parts of a 0.1 M solution of perchloric acid in acetic acid. square voltage superimposed with constant pulses of +10 millivolts, initial potential: 500 millivolts, scanning voltage: 1000 millivolts in the anode direction, oxidation at the vitreous carbon electrode (speed of rotation: 2000 r.p.m.)

Row | Structure (SMILES) | % of sublimed product [1] | Migration ([3]; H2O/NaCl (97:3), 0.3, 1 month) | Migration ([3]; H2O/NaCl (97:3), 0.3, 2 months) | Migration ([2]; 0.15 pct, 1 month) | Migration ([2]; 0.15 pct, 2 months) | Migration ([2]; 0.15 pct, 10 days) | Migration ([2]; 0.15 pct, 20 days) | Migration ([2]; 0.30 pct, 1 month) | Migration ([2]; 0.30 pct, 2 months) | Migration ([2]; 0.30 pct, 10 days) | Migration ([2]; 0.30 pct, 20 days) | other results
1 | CCCCCCCCOC(=O)C1=C(C)NC(C)=C(C(=O)OCCCCCCCC)C1 [L.28502] | 7.2% | – | – | – | – | – | – | – | – | – | – | sublimation [1]: 7%
2 | CCCOC(=O)C1=C(C)NC(C)=C(C(=O)OCCC)C1 [L.28509] | 79.1% | – | – | – | – | – | – | – | – | – | – | –
3 | c1ccc(-c2cc3ccccc3[nH]2)cc1 [2-phenyl indole, reference compound] | 62% | 90 µg/L | 140 µg/L | – | – | – | – | – | – | – | – | Migration ([2]; 0.30 pct, 1 month, listed as Control): 100 µg/L and 110 µg/L and 120 µg/L; Migration ([2]; 0.30 pct, 2 months, listed as Control): 100 µg/L and 110 µg/L and 130 µg/L; Migration ([2]; 0.30 pct, 10 days, listed as Control): 75 µg/L and 70 µg/L and 80 µg/L; Migration ([2]; 0.30 pct, 20 days, listed as Control): 90 µg/L and 100 µg/L; sublimation [1]: 62%
4 | Cc1cc(C(C)(C)C)c(O)c(C(C)(C)C)c1 [BHT, Di-tert.-2,6-butyl-4-methyl phenol, reference compound] | – | – | – | – | – | – | – | – | – | – | – | Oxidation potential [4]: 1.11 ± 0.02; Oxidation potential [5]: 1163 millivolts
5 | CC1=C(C(=O)OC(C)C)CC(C(=O)OC(C)C)=C(C)N1 [L.28506] | 98.1% | – | – | – | – | – | – | – | – | – | – | –
6 | CCCCCCCCCCCCOC(=O)C1=C(C)NC(C)=C(C(=O)OCCCCCCCCCCCC)C1 [L.28507, 2,6-Dimethyl-3,5-dicarbododecyloxy-1,4-dihydropyridine] | 1.7% | < 5 µg/L | < 5 µg/L | < 5 µg/L | < 5 µg/L | < 5 µg/L | < 5 µg/L | < 5 µg/L | < 5 µg/L | < 5 µg/L | < 5 µg/L | Migration ([3]; Heptane, 0.3 pcr, after 36 h): 120 µg/L; Migration ([3]; Heptane, 0.3 pcr, after 84 h): 150 µg/L; Migration ([3]; Water/C2H5OH (50:50), 0.3, 1 month): 50 µg/L; Migration ([3]; Water/C2H5OH (85:15), 0.3, 1 month): < 5 µg/L; Migration ([3]; Water/C2H5OH (85:15), 0.3, 2 months): < 5 µg/L; Migration ([3]; Water/CH3COOH (50:50), 0.3, 1 month): 25 µg/L; Migration ([3]; Water/CH3COOH (90:10), 0.3, 1 month): < 5 µg/L; Migration ([3]; Water/CH3COOH (90:10), 0.3, 2 months): < 5 µg/L; Migration ([3]; Water/CH3COOH (97:3), 0.3, 1 month): < 5 µg/L; Migration ([3]; Water/CH3COOH (97:3), 0.3, 2 months): < 5 µg/L; Migration ([3]; Water/NaCl/CH3COOH (98,5:0,5:1), 0.3, 1 month): < 5 µg/L; Migration ([3]; Water/NaCl/CH3COOH (98,5:0,5:1), 0.3, 2 months): < 5 µg/L; Migration ([3]; Water/Sacchrose (90:10), 0.3, 1 month): < 5 µg/L; Migration ([3]; Water/Sacchrose (90:10), 0.3, 2 months): < 5 µg/L; Migration ([3]; Water/citric acid (98:2), pH 5, 0.3, 1 month): < 5 µg/L; Migration ([3]; Water/citric acid (98:2), pH 5, 0.3, 2 months): < 5 µg/L; Oxidation potential [5]: 783 millivolts
7 | CCCCCCCCCCCCCCOC(=O)C1=C(C)NC(C)=C(C(=O)OCCCCCCCCCCCCCC)C1 [L.28590, 2,6-Dimethyl-3,5-dicarbotetradecyloxy-1,4-dihydropyridine] | 0.1% | < 5 µg/L | < 5 µg/L | < 5 µg/L | < 5 µg/L | < 5 µg/L | < 5 µg/L | < 5 µg/L | < 5 µg/L | < 5 µg/L | < 5 µg/L | Oxidation potential [5]: 732 millivolts
8 | CCCCCCCCCCCCCCCCCCOC(=O)C1=C(C)NC(C)=C(C(=O)OCCCCCCCCCCCCCCCCCC)C1 [L.28599, 2,6-Dimethyl-3,5-dicarbooctadecyloxy-1,4-dihydropyridine] | 1.2% | < 5 µg/L | < 5 µg/L | < 5 µg/L | < 5 µg/L | < 5 µg/L | < 5 µg/L | < 5 µg/L | < 5 µg/L | < 5 µg/L | < 5 µg/L | –
9 | CCCCCCCCCCOC(=O)C1=C(C)NC(C)=C(C(=O)OCCCCCCCCCC)C1 [L.28591] | 1.7% | – | – | – | – | – | – | – | – | – | – | –
10 | CCCCOC(=O)C1=C(C)NC(C)=C(C(=O)OCCCC)C1 [L.28552, 2,6-Dimethyl-3,5-dicarbobutoxy-1,4-dihydropyridine] | 39.2% | 80 µg/L | 100 µg/L | 90 µg/L | 100 µg/L | 15 µg/L | 40 µg/L | 130 µg/L | 130 µg/L | 80 µg/L | 120 µg/L | –
11 | COc1ccc(O)cc1 [4-Methoxy phenol] | – | – | – | – | – | – | – | – | – | – | – | Oxidation potential [4]: 0.89 ± 0.01
12 | CCOC(=O)C1=C(C)NC(C)=C(C(=O)OCC)C1 [L.28501, 2,6-Dimethyl-3,5-dicarboethoxy-1,4-dihydropyridine] | 82.9% | 120 µg/L | 150 µg/L | 100 µg/L | 100 µg/L | 20 µg/L | 50 µg/L | 150 µg/L | 150 µg/L | 90 µg/L | 120 µg/L | Oxidation potential [4]: 0.73 ± 0.01
13 | CCCCCCCC/C=C\CCCCCCCCOC(=O)C1=C(C)NC(C)=C(C(=O)OCCCCCCCC/C=C\CCCCCCCC)C1 [L.28602] | – | – | – | – | – | – | – | – | – | – | – | Oxidation potential [5]: 808 millivolts
14 | CCCCCCCCCCCCCCCCCCCCCCOC(=O)C1=C(C)NC(C)=C(C(=O)OCCCCCCCCCCCCCCCCCCCCCC)C1 [L.28601] | 0.4% | – | – | – | – | – | – | – | – | – | – | –
15 | Oc1ccc(O)cc1 [Hydroquinone] | – | – | – | – | – | – | – | – | – | – | – | Oxidation potential [4]: 0.83 ± 0.01
